Values quoted from earlier work as cited in patent US9572781B2, “Orally disintegrating tablet compositions comprising combinations of non-opioid and opioid analgesics” (Adare Pharmaceuticals, Inc., priority 2009, dated 2017).

Drug detectable (after about 8 hours): only traces
Time to peak plasma concentrations (following oral administration): 30 to 60 min
Compound: CC(=O)Nc1ccc(O)cc1 [acetaminophen]
